Publication PMC7785020, “A unique hormonal recognition feature of the human glucagon-like peptide-2 receptor” (Cell Research, 2020)
Where a chain is given by its changes, count along the chain named. Where two headings read alike, the source gives them in different places. No end group written: not given here.

Experiments:
GLP-2R R242^ECL1E = target: T1, GLP-2R R242^ECL1E (Homo sapiens, UniProt O95838, R242E); experiment: cAMP accumulation, R242^ECL1E; type: cell-based; parameters: WT (1–553); expressed in transfected cells; HEK 293T (cAMP); conditions: HEK 293T, 30 min, RT, mean ± SEM, n ≥ 3 in duplicate; for Emax: HEK-293T, read-out: cAMP Emax (% WT); for EC50: read-out: cAMP pEC50 (converted)
T1 sequence (O95838 1-553 R242E): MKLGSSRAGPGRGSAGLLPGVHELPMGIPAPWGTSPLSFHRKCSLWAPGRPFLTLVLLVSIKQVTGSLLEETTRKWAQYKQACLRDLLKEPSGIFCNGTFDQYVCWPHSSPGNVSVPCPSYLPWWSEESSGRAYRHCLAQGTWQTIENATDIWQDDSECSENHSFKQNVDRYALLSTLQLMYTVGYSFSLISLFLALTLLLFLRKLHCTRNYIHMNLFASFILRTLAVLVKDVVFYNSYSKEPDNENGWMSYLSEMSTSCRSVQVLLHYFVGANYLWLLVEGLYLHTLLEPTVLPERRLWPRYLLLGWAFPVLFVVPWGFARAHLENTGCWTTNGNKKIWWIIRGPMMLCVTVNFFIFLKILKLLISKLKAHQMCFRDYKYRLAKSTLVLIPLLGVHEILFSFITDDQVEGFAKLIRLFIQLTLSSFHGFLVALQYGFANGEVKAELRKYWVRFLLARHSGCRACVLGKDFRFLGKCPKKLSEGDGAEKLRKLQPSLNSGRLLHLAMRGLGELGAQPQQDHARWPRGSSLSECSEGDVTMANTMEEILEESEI
Description: They were seeded onto 6-well cell culture plates and transiently transfected with different GLP-2R constructs using Lipofectamine 2000 transfection reagent (Invitrogen, Carlsbad, CA, USA). After 24 h, the transfected cells were seeded onto 384-well microtiter plates (3000 cells per well) in HBSS supplemented with 5 mM HEPES, 0.1% (w/v) bovine serum albumin (BSA) and 0.5 mM 3-isobutyl-1- methylxanthine, and stimulated with increasing concentrations of GLP-2 for 30 min at RT. Eu and Ulight were diluted by cAMP detection buffer and added to the plates separately to terminate the reaction. Plates were incubated at RT for 60 min before measuring the fluorescence intensity at 620 nm and […] by an EnVision multilabel plate reader (PerkinElmer, Boston, USA).

GLP-2R W340^5.36A = target: T2, GLP-2R W340^5.36A (Homo sapiens, UniProt O95838, W340A); experiment: radioligand competition binding, W340^5.36A; parameters: WT (1–553); expressed in transfected cells; conditions: COS-7, W340^5.36A; [^125I]GLP-2(1–33, M10Y) 10–15 pM, 4 h, 4 °C; mean ± SEM, n ≥ 3 in duplicate
T2 sequence (O95838 1-553 W340A): T1 sequence (O95838 1-553 R242E) with E242R, W340A
Description: (§1) A stepwise oxidation reaction was performed by addition of 6 aliquots of 5 µL ChloramineT (30 µL/mL) with a 1-min interval during constant stirring. The reaction was terminated by the addition of 400 µL phase A (0.1% trifluoracetic acid) before being fractionated into 1 mL volume by reverse-phase high-performance liquid chromatography (RP-HPLC, Waters 600 SimiPrep system) on a C18 column. The iodinated protein was […] by increasing concentrations of phase B (Acetonitrile + 0.1% TFA) and tested for competitive binding ability.
(§2) One day before transfection, the COS-7 cells were seeded in 75 cm^2 culture flasks (3 million cells/flask) in DMEM, containing 3.9 g/L NaHCO3 and supplemented with 10% FBS, 1% L-glutamine, 180 units/mL penicillin and 45 µg/mL streptomycin. After an overnight culture at 37 °C, 10% CO2 and 95% air humidity, the cells were transiently transfected with different GLP-2R constructs or pcDNA3.1 vector as previously described.[52] Following 24-h incubation, the cells were transferred to Costa® microtiter plates (150,000 cells/well, PerkinElmer) to achieve a 5%–10% specific binding. […] The cells were then washed twice in binding buffer (4 °C), lysed and counted for radioactivity using a Wallac Gamma Counter (PerkinElmer).

GLP-2R W249^ECL1A = target: T3, GLP-2R W249^ECL1A (Homo sapiens, UniProt O95838, W249A); experiment: radioligand competition binding, W249^ECL1A; parameters: WT (1–553); expressed in transfected cells; conditions: COS-7, W249^ECL1A; [^125I]GLP-2(1–33, M10Y) 10–15 pM, 4 h, 4 °C; mean ± SEM, n ≥ 3 in duplicate
T3 sequence (O95838 1-553 W249A): T1 sequence (O95838 1-553 R242E) with E242R, W249A
Description: as §1, §2

Row | Emax (GLP-2R R242^ECL1E; Table S5, R242E) | EC50 (GLP-2R R242^ECL1E; Table S5, R242E) | Molecule | % Binding of WT (GLP-2R W340^5.36A) | % Binding of WT (GLP-2R W249^ECL1A) | Emax (GLP-2R R242^ECL1E; Table S3, R242E)
1 | 108 ± 5.5% | 39.8 nM | HADGSFTSDVSSYLEGQAARDFINWLIQTKITD [Chimeric GLP-1/GLP-2 (7-19)] |  |  | 
2 |  |  | CC[C@H](C)[C@H](NC(=O)[C@H](Cc1ccccc1)NC(=O)[C@H](CC(=O)O)NC(=O)[C@H](CCCNC(=N)N)NC(=O)[C@H](C)NC(=O)[C@H](C)NC(=O)[C@H](CC(C)C)NC(=O)[C@H](CC(N)=O)NC(=O)[C@H](CC(=O)O)NC(=O)[C@H](CC(C)C)NC(=O)[C@@H](NC(=O)[C@@H](NC(=O)[C@H](CC(N)=O)NC(=O)[C@H](CCSC)NC(=O)[C@H](CCC(=O)O)NC(=O)[C@H](CC(=O)O)NC(=O)[C@H](CO)NC(=O)[C@H](Cc1ccccc1)NC(=O)[C@H](CO)NC(=O)CNC(=O)[C@H](CC(=O)O)NC(=O)CNC(=O)[C@@H](N)Cc1c[nH]cn1)[C@@H](C)O)[C@@H](C)CC)C(=O)N[C@@H](CC(N)=O)C(=O)N[C@@H](Cc1c[nH]c2ccccc12)C(=O)N[C@@H](CC(C)C)C(=O)N[C@H](C(=O)N[C@@H](CCC(N)=O)C(=O)N[C@H](C(=O)N[C@@H](CCCCN)C(=O)N[C@H](C(=O)N[C@H](C(=O)N[C@@H](CC(=O)O)C(=O)O)[C@@H](C)O)[C@@H](C)CC)[C@@H](C)O)[C@@H](C)CC [Teduglutide] | 8.6 ± 1.8 % | 2.9 ± 2.0 % | 
3 | 103 ± 3.5% | 5.01 nM | HADGSFSDEMNTILDNLAAKEFIAWLVKGRG [Chimeric GLP-1/GLP-2 (20-33)] |  |  | 
4 | 108 ± 3.2% | 25.1 nM | HAEGTFSDEMNTILDNLAARDFINWLIQTKITD [Chimeric GLP-1/GLP-2 (1-6)] |  |  | 

Row | Molecule | Emax (GLP-2R R242^ECL1E; Table S5, R242E) | EC50 (GLP-2R R242^ECL1E; Table S5, R242E) | % Binding of WT (GLP-2R W340^5.36A) | % Binding of WT (GLP-2R W249^ECL1A) | Emax (GLP-2R R242^ECL1E; Table S3, R242E)
5 | CC[C@H](C)[C@H](NC(=O)[C@H](Cc1ccccc1)NC(=O)[C@H](CC(=O)O)NC(=O)[C@H](CCCNC(=N)N)NC(=O)[C@H](C)NC(=O)[C@H](C)NC(=O)[C@H](CC(C)C)NC(=O)[C@H](CC(N)=O)NC(=O)[C@H](CC(=O)O)NC(=O)[C@H](CC(C)C)NC(=O)[C@@H](NC(=O)[C@@H](NC(=O)[C@H](CC(N)=O)NC(=O)[C@H](CCSC)NC(=O)[C@H](CCC(=O)O)NC(=O)[C@H](CC(=O)O)NC(=O)[C@H](CO)NC(=O)[C@H](Cc1ccccc1)NC(=O)[C@H](CO)NC(=O)CNC(=O)[C@H](CC(=O)O)NC(=O)[C@H](C)NC(=O)[C@@H](N)Cc1c[nH]cn1)[C@@H](C)O)[C@@H](C)CC)C(=O)N[C@@H](CC(N)=O)C(=O)N[C@@H](Cc1c[nH]c2ccccc12)C(=O)N[C@@H](CC(C)C)C(=O)N[C@H](C(=O)N[C@@H](CCC(N)=O)C(=O)N[C@H](C(=O)N[C@@H](CCCCN)C(=O)N[C@H](C(=O)N[C@H](C(=O)N[C@@H](CC(=O)O)C(=O)O)[C@@H](C)O)[C@@H](C)CC)[C@@H](C)O)[C@@H](C)CC [Human GLP-2 (1–33)] | 103 ± 2.3% |  | 7.3 ± 0.6 % | 2.2 ± 1.2 % | 108 ± 1.9%
